For one data set, the target named is T1, human V1a receptor (Homo sapiens, UniProt P37288).
T1 construct: expressed in transfected cells; host or cells: CHO K1 (Chinese hamster ovary), also stably transfected with a modified aequorin
Description: Cellular in vitro assay for vasopressin receptor activity (V1a, aequorin luminescence). Type of data set: cell-based. The settings on record: for IC50: CHO cell line with human V1a receptor, [Arg8]-vasopressin at EC50, values are for the prodrug as such, read-out: IC50 hV1a; for ratio IC50 hV2/hV1a: selectivity ratio hV2/hV1a. The procedure: (§1) B-1. Cellular In Vitro Assay for Determining Vasopressin Receptor Activity
(§2) The identification of agonists and antagonists of the V1a and V2 vasopressin receptors from humans, rats and dogs as well as the quantification of the activity of the compounds of the invention is carried out using recombinant cell lines. These cell lines originally derive from a hamster's ovary epithelial cell (Chinese Hamster Ovary, CHO K1, ATCC: American Type Culture Collection, Manassas, Va. 20108, USA). The test cell lines constitutively express the human, rat or dog V1a or V2 receptors. In case of the Gaq-coupled V1a receptors, cells are also stably transfected with a modified form of the calcium-sensitive photoproteins aequorin (human and rat V1a) or obelin (dog V1a), which, after reconstitution with the cofactor coelenterazine, emit light when there are increases in free calcium concentrations [Rizzuto R, Simpson A W, Brini M, Pozzan T, Nature 358, 325-327 (1992); Illarionov B A, Bondar V S, Illarionova V A, Vysotski E S, Gene 153 (2), 273-274 (1995)]. The resulting vasopressin receptor cells react to stimulation of the recombinantly expressed Via receptors by intracellular release of calcium ions, which can be quantified by the resulting photoprotein luminescence. The Gs-coupled V2 receptors are stably transfected into cell lines expressing the gene for firefly luciferase under control of a CRE-responsible promoter. Activation of V2 receptors induces the activation of the CRE-responsive promoter via cAMP increase, thereby inducing the expression of firefly luciferase. The light emitted by photoproteins of V1a cell lines as well as the light emitted by firefly luciferase of V2 cell lines corresponds to the activation or inhibition of the respective vasopressin receptor. The bioluminescence of the cell lines is detected using a suitable luminometer [Milligan G, Marshall F, Rees S, Trends in Pharmacological Sciences 17, 235-237 (1996)].
Vasopressin V1a Receptor Cell Lines:
On the day before the assay, the cells are plated out in culture medium (DMEM/F12, 2% FCS, 2 mM glutamine, 10 mM HEPES, 5 μg/ml coelenterazine) in 384-well microtiter plates and kept in a cell incubator (96% humidity, 5% v/v CO2, 37C). On the day of the assay, test compounds in various concentrations are placed for 10 minutes in the wells of the microtiter plate before the agonist [Arg^8]-vasopressin at EC50 concentration is added. The resulting light signal is measured immediately in a luminometer.
(§3) Table 1A below lists individual IC50 values for the compounds of the invention (including racemic mixtures as well as separated enantiomers) that were obtained from cell lines transfected with the human V1a or V2 receptor. This means these IC50 values are the values for the prodrug and not for the underlying respective drug as the prodrug is mainly stable under the assay conditions.

A further data set addresses T2, human V2 receptor (Homo sapiens, UniProt P30518).
T2 construct: expressed in transfected cells; host or cells: CHO K1 cells expressing firefly luciferase under a CRE-responsive promoter
Description: Cellular in vitro assay for vasopressin receptor activity (V2, CRE-luciferase). Format: cell-based. The settings on record: CHO cell line with human V2 receptor, [Arg8]-vasopressin at EC50; values are for the prodrug as such; read-out: IC50 hV2. The protocol: as §1, §2
Vasopressin V2 Receptor Cell Lines:
On the day before the assay, the cells are plated out in culture medium (DMEM/F12, 2% FCS, 2 mM glutamine, 10 mM HEPES) in 384-well microtiter plates and kept in a cell incubator (96% humidity, 5% v/v CO2, 37C). On the day of the assay, test compounds in various concentrations and the agonist [Arg^8]-vasopressin at EC50 concentration are added together to the wells, and plates are incubated for 3 hours in a cell incubator. Upon addition of the cell lysis reagent Triton™ and the substrate luciferin, luminescence of firefly luciferase is measured in a luminometer.
as §3

Another data set can be described thus: Solubility. The following applies: 24 h room temperature, max. 500 μg/ml; for solubility at 24 h: thermodynamic from solid. Type of data set: physicochemical. The procedure: For each substance 0.5-0.6 mg are weighed exactly. In each case, sufficient medium is added to the sample in such a way that a concentration of c=500 μg/ml is obtained. This sample solution is shaken for 24 h at room temperature and 1400 rpm.
A further sample weight of 0.5-0.6 mg is required for the DMSO calibration solution. This sample is filled with DMSO to a concentration of c=600 μg/ml. Two calibration solutions are prepared from this stock solution. In a 2 ml HPLC vial, 1000 μl of DMSO are initially introduced and 34.4 μl of the stock solution are pipetted (c=20 µg/ml). […] of this solution (c=20 μg/ml) are placed in a further 2 ml HPLC vial containing 500 μl of DMSO (c=2.5 μg/ml).
After shaking the test solutions, 230 μl of the supernatant are transferred into a centrifuge tube and centrifuged at 42 000 rpm (223 000 g) for 30 min. 180 μl of the supernatant are then taken and each diluted with DMSO (1:5 sample 1; 1:100 sample 2), and transferred to HPLC vials. The two calibration solutions and the dilute sample solutions are analyzed by HPLC. Quantification is performed over the corresponding peak areas.
Distilled water; trifluoroacetic acid (Merck; 1.08262.0100); acetonitrile (HPLC grade); DMSO (Merck; 8.02912.2500).
Fluka buffer, Order No. 33643 (11.76 g citric acid, 2.57 g sodium chloride and 2.72 g sodium hydroxide).
Fluka buffer, Order No. 33646 (3.52 g potassium dihydrogenphosphate, 7.26 g sodium hydrogen phosphate).
Solution of 6.18 g sodium chloride and 3.96 g sodium dihydrogen phosphate in 1 L distilled water, adjust with 1M aqueous sodium hydroxide solution to pH 7.4.
0.6057 g TRIS was dissolved in 95 ml water, adjust to pH 8.5 with aqueous hydrochloric acid, fill with water until 100 ml volume is reached.

The mark [1] stands for this setting: PBS buffer pH 7.4, pH 7.4, aqueous buffer, pH = 7.4 PBS buffer.
Setting [2] is: Tris buffer pH 8.5, pH 8.5, aqueous buffer, pH = 8.5 Tris buffer.
Setting [3] is: citrate buffer pH 4, pH 4, aqueous buffer, pH = 4 citrate buffer.

Bounds are passed on as bounds.

Here are results for six compounds from patent publication US11298367B2, “Prodrugs of substituted triazole derivatives and uses thereof” (Bayer Aktiengesellschaft, priority 2017, dated 2022).

T2 sequence (P30518 whole entry): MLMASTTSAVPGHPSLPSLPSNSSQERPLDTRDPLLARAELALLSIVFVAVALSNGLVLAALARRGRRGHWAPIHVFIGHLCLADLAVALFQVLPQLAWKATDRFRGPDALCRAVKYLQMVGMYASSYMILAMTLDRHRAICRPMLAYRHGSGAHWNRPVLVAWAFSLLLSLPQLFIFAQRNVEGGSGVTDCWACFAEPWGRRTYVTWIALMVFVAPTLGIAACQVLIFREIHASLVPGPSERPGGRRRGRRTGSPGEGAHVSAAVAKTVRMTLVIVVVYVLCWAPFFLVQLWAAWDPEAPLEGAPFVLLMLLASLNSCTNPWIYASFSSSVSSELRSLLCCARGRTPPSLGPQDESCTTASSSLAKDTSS
T1 sequence (P37288 whole entry): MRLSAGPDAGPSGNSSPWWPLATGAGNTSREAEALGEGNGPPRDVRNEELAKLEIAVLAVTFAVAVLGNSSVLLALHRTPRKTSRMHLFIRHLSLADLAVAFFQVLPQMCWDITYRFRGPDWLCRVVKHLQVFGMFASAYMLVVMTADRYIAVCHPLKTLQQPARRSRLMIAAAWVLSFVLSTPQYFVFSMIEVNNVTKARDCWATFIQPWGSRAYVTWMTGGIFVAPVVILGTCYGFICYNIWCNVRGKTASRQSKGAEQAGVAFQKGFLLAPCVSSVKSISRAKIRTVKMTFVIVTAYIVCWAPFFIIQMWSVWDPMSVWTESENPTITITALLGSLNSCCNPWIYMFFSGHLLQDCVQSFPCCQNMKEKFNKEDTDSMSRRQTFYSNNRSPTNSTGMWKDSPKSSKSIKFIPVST

With `NC(=O)c1nc(Cn2nc(-c3ccc(Cl)cc3)n(C[C@H](OP(=O)([O-])O)C(F)(F)F)c2=O)nn1-c1ncccc1C(F)(F)F.[Na+]` [Example 4, Sodium (2S)-3-[1-({5-carbamoyl-1-[3-(trifluoromethyl)pyridin-2-yl]-1H-1,2,4-triazol-3-yl}-methyl)-3-(4-chlorophenyl)-5-oxo-1,5-dihydro-4H-1,2,4-triazol-4-yl]-1,1,1-trifluoropropan-2-yl Hydrogen Phosphate], the IC50 (in general, the concentration needed to halve the response being measured) at human V1a receptor came out at 0.0111 µM; on human V2 receptor it was 0.15 µM. Further, on human V1a receptor (Phosphate), the “ratio IC50 hV2/hV1a” value came out at 13.5. Further, the solubility at 24 h in the data set “Solubility” (setting [1]), in “Solubility” (setting [2]) and in “Solubility” (setting [3]) was over 0.5 mg/mL throughout.
For the compound `NC(=O)c1nc(Cn2nc(-c3ccc(Cl)cc3)n(C[C@H](OP(=O)([O-])O)C(F)(F)F)c2=O)nn1-c1ncccc1C(F)(F)F.[Li+]` [Example 6, Lithium (2S)-3-[1-({5-carbamoyl-1-[3-(trifluoromethyl)pyridin-2-yl]-1H-1,2,4-triazol-3-yl}-methyl)-3-(4-chlorophenyl)-5-oxo-1,5-dihydro-4H-1,2,4-triazol-4-yl]-1,1,1-trifluoropropan-2-yl Hydrogen Phosphate], the IC50 turned out to be 0.0155 µM at human V1a receptor and 0.22 µM at human V2 receptor. In addition, the “ratio IC50 hV2/hV1a” value at human V1a receptor (Phosphate) came to 14.2. Further, the solubility (usually the concentration that dissolves in the medium under given conditions) at 24 h was 0.464 mg/mL in “Solubility” (setting [1]), 0.464 mg/mL in “Solubility” (setting [2]) and over 0.5 mg/mL in the data set “Solubility” (setting [3]).
In the case of `NC(=O)c1nc(Cn2nc(-c3ccc(Cl)cc3)n(C[C@H](OP(=O)([O-])O)C(F)(F)F)c2=O)nn1-c1ncccc1C(F)(F)F.[Li+]` [Example 7, Lithium (2S)-3-[1-({5-carbamoyl-1-[3-(trifluoromethyl)pyridin-2-yl]-1H-1,2,4-triazol-3-yl}-methyl)-3-(4-chlorophenyl)-5-oxo-1,5-dihydro-4H-1,2,4-triazol-4-yl]-1,1,1-trifluoropropan-2-yl Hydrogen Phosphate], the IC50 at human V1a receptor came to 0.00885 µM; at human V2 receptor, 0.16 µM. Moreover, the “ratio IC50 hV2/hV1a” value on human V1a receptor (Phosphate) was found to be 18.1. Also, the Solubility (in general, how much of the substance goes into solution per volume) in “Solubility” (pH = 4 citrate buffer) was over 0.5 mg/mL; in the data set “Solubility” (pH = 7.4 PBS buffer, Phosphate), over 0.5 mg/mL; in the data set “Solubility” (pH = 8.5 Tris buffer, Phosphate) it was over 0.5 mg/mL.
Regarding `NC(=O)c1nc(Cn2nc(-c3ccc(Cl)cc3)n(C[C@H](OP(=O)([O-])[O-])C(F)(F)F)c2=O)nn1-c1ncccc1C(F)(F)F.[Mg+2]` [Example 9, Magnesium (2S)-3-[1-({5-carbamoyl-1-[3-(trifluoromethyl)pyridin-2-yl]-1H-1,2,4-triazol-3-yl}-methyl)-3-(4-chlorophenyl)-5-oxo-1,5-dihydro-4H-1,2,4-triazol-4-yl]-1,1,1-trifluoropropan-2-yl Phosphate], the IC50 at human V1a receptor is 0.014 µM; at human V2 receptor, 0.225 µM. Also, the “ratio IC50 hV2/hV1a” value on human V1a receptor is given as 16.1. Also, the solubility at 24 h in “Solubility” (setting [1]) was over 0.5 mg/mL; in “Solubility” (setting [2]), 0.447 mg/mL; in the data set “Solubility” (setting [3]), over 0.5 mg/mL.
In the case of `NC(=O)c1nc(Cn2nc(-c3ccc(Cl)cc3)n(C[C@H](OP(=O)([O-])O)C(F)(F)F)c2=O)nn1-c1ncccc1Cl.[Na+]` [Example 21, Sodium (2S)-3-[1-{[5-carbamoyl-1-(3-chloropyridin-2-yl)-1H-1,2,4-triazol-3-yl]methyl}-3-(4-chlorophenyl)-5-oxo-1,5-dihydro-4H-1,2,4-triazol-4-yl]-1,1,1-trifluoropropan-2-yl Hydrogen Phosphate], the IC50 on human V1a receptor worked out at 0.021 µM; at human V2 receptor, 0.038 µM. In addition, on human V1a receptor (Phosphate), the “ratio IC50 hV2/hV1a” value was 1.8.
As to `NC(=O)c1nc(Cn2nc(-c3ccc(Cl)cc3)n(C[C@H](OP(=O)([O-])[O-])C(F)(F)F)c2=O)nn1-c1ncccc1Cl.[Ca+2]` [Example 23, Calcium (2S)-3-[1-{[5-carbamoyl-1-(3-chloropyridin-2-yl)-1H-1,2,4-triazol-3-yl]methyl}-3-(4-chlorophenyl)-5-oxo-1,5-dihydro-4H-1,2,4-triazol-4-yl]-1,1,1-trifluoropropan-2-yl Phosphate], at human V1a receptor, the IC50 came to 0.027 µM and the “ratio IC50 hV2/hV1a” value was found to be 2.7. Besides, the IC50 at human V2 receptor worked out at 0.0735 µM.
